Assay results from patent publication US20080208179A1, “METHODS OF INCREASING SKIN PERMEABILITY BY TREATMENT WITH ELECTROMAGNETIC RADIATION” (Reliant Technologies, Inc., priority 2006, published 2008).

Columns and labels:
Format in all cases: in vitro ADME
[1] = In vitro permeation of 5-Fluorouracil through fractional laser treated ex vivo human skin (Example 8)
Method: In vitro permeation studies were performed on untreated and treated ex vivo human skin to determine if treatment of the skin with fractional laser radiation increased skin permeability to a 0.5% (w/v) 5-Fluorourocil solution. The treatment was conducted using the methods outlined in Examples 6 and 7 using a Fraxel Re:store™ laser system (Reliant Technologies, Mountain View, Calif., USA). The treatment parameters used included a laser pulse energy of 10 mJ, a 60 μm incident optical spot size, and a final spot density of 2000 MTZ/cm^2. The skin graft thickness used was 500 μm. The experiment consisted of a total of 6 individual runs (n=6). The uptake study was conducted using an infinite dose regimen.
The total uptake was taken as the sum of the permeated and retained 5-Fluorouracil. The permeation values were calculated at each time point and plotted as a cumulative value in FIG. 16. Over the course of the study (24 hours), the uptake of 5-Fluorouracil from the untreated skin (control) remained below 0.2 mg/cm^2, while the uptake of 5-Fluorouracil from the laser treated skin approached 1.4 mg/cm^2 after 24 hours.

[2] = In vitro permeation of ascorbic acid through fractional laser treated ex vivo human skin (Example 6, 60 μm treatment zone size); conditions: for Retention Ratio / Total Uptake Ratio: delivery mode not given; for Cumulative permeation / Enhancement ratio (total uptake by treatment/total uptake in control) / Retention / Total uptake: 90 min
Method: In vitro permeation studies were performed on untreated and treated human skin to determine if treatment of the skin with fractional laser radiation increased skin permeability to ascorbic acid. The treatment consisted of exposing the skin in vitro to fractional laser radiation. This study also evaluated the effect of using the laser radiation using the contact delivery mode and the non-contact delivery mode.
Ex vivo skin: All ex vivo laser treatments were performed using a 1550 nm laser system on freshly excised human abdominal skin (Fitzpatrick skin type II).
Laser parameters: Arrays of single mode Gaussian beams of 60 μm 1/e^2 diameter at incidence were delivered to the surface of the skin specimen in each treatment, using contact and non-contact tips. For the contact delivery mode, the laser radiation was delivered through a sapphire window in a contact tip which abutted the specimen. For the non-contact delivery mode, the laser radiation was delivered through a contact tip without the sapphire window; thus, the laser incidence occurred at the air-tissue interface. The laser pulse energies tested for ascorbic acid uptake measurements were 10 and 20 mJ. […]
Ascorbic acid formulation: Topical vitamin C solution contained L-ascorbic acid 15% (VWR International, West Chester, Pa.), ferulic acid 0.5%, and vitamin E 1% buffered to a pH of 3.2±0.2 with triethanolamine (Lin et al, 2005). Ascorbic acid was freshly prepared avoiding light exposure just prior to each experiment.
(§1) Ascorbic acid permeation studies: The uptake studies were carried out using skin permeation systems (LGA, Inc., Berkeley, Calif.) and 500 μm thick skin grafts from freshly excised human abdominal skin. Non-laser treated skin was used as a control. Immediately after laser treatment, each skin sample was mounted on a permeation system whose donor compartment was then filled with ascorbic acid solution (Lee et al, 2003). The entire arrangement was incubated to simulate body temperature. Aliquots were drawn at 5, 10, 15, 30, 60, and 90 min, and quantitatively analyzed for permeated ascorbic acid using high performance liquid chromatography (HPLC). After 90 min, each skin sample was washed thoroughly in saline, weighed, homogenized and centrifuged (Lee et al, 2003). This was followed by HPLC analysis to determine the retained ascorbic acid value. The measured retention was then normalized to the effective area of skin sample through which permeation occurred. Each experiment constituted a total of 5 individual runs (n=5).
(§2) Data analysis: The total uptake was taken as the sum of the permeated and retained ascorbic acid. The permeation values were calculated at each time point and plotted as a cumulative value. The uptake enhancement ratio represents the total ascorbic acid uptake for laser treated skin divided by the total uptake for untreated skin at 90 min.

[3] = In vitro permeation of ascorbic acid through fractional laser treated ex vivo human skin (Example 7, 85 μm spot size); conditions: for Cumulative permeation / Enhancement ratio (total uptake in treated sample/total uptake in control) / Retention / Total uptake: 90 min; for Normalized cumulative permeation at 10 mJ @ 2000 MTZ/cm2 relative to 20 mJ @ 1000 MTZ/cm2: by 90 min
Method: In vitro permeation studies were performed on untreated and treated human skin to determine if treatment of the skin with fractional laser radiation increased skin permeability to ascorbic acid.
A modified 1550 nm Fraxel® SR laser system was operated as previously described by Bedi et al., Lasers Surg Med, 2007 February; 39(2):145-55. Arrays of single mode Gaussian beams of 85 μm 1/e^2 diameter at incidence were delivered to the surface of the skin specimen in each treatment, using contact and non-contact tips. The contact tip abutted the specimen through a sapphire window through which the laser beam was irradiated. The non-contact tip omitted the sapphire window; thus, the laser incidence occurred at the air-tissue interface. The laser pulse energies tested for ascorbic acid uptake measurements were 10 and 20 mJ. For each 10 mJ treatment, 8 passes at 250 microscopic treatment zones (MTZs) per cm^2 were made at a constant velocity of 1.0 cm per second producing a final spot density of 2000 MTZs per cm^2; for each 20 mJ treatment, 4 passes at 250 microscopic treatment zones (MTZs) per cm^2 were made at a constant velocity of 1.0 cm per second producing a final spot density of 1000 MTZs per cm^2. These pulse energy and spot density combination parameters are similar to those used in a typical clinical NFR™ treatment session. Histologic examination was performed for pulse energies ranging from 6 to 40 mJ at a fixed spot size of 85 μm. The pulse durations ranged from 0.24 to 1.6 msec per pulse.
Topical vitamin C solution contained L-ascorbic acid 15% (VWR International, West Chester, Pa.), ferulic acid 0.5%, and vitamin E 1% buffered to a pH of 3.2±0.2 with triethanolamine (Lin et al, 2005). Ascorbic acid was freshly prepared avoiding light exposure just prior to each experiment.
as §1, with “The uptake” for “Ascorbic acid permeation studies: The uptake”, “and 90 min from the diffusion chamber, and quantitatively” for “and 90 min, and quantitatively”
as §2, with “The” for “Data analysis: The”, “acid over the cross-sectional area of the skin through which uptake occurred.” for “acid.”

[4] = 10 mJ, 60 μm spot size, 2000 MTZ/cm2, 0.5% (w/v) solution, n=6
[5] = 20 mJ, 1000 TZ/cm2, contact mode
[6] = 20 mJ, 1000 TZ/cm2, non-contact mode
[7] = 1550 nm, 60 μm, 20 mJ, contact mode, 1000 TZ/cm2
[8] = 1550 nm, 60 μm, 20 mJ, non-contact mode, 1000 TZ/cm2
[9] = control, non-laser treated skin
[10] = skin group not stated (sentence follows the control value)
[11] = 1550 nm, 85 μm, 10 mJ, contact mode, 2000 MTZ/cm2
[12] = 1550 nm, 85 μm, 20 mJ, contact mode, 1000 MTZ/cm2
[13] = 1550 nm, 85 μm, 20 mJ, non-contact mode, 1000 MTZ/cm2
[14] = 1550 nm, 85 μm, non-contact mode, pulse energy 20 mJ, text b229 prints 10 mJ @ 2000 MTZ/cm2

SMILES: O=c1[nH]cc(F)c(=O)[nH]1 [5-Fluorouracil]
- Permeation, Ratio ± Standard Deviation [1, 4]: 37.7 ± 10.6
- Retention, Ratio ± Standard Deviation [1, 4]: 2.4 ± 0.8
- Uptake, Ratio ± Standard Deviation [1, 4]: 20.3 ± 5.3
- Uptake ([1]; laser treated skin, 10 mJ, 60 μm, 2000 MTZ/cm2, after 24 hours): ~1.4 mg/cm^2
- Uptake ([1]; untreated skin (control), over 24 hours): below 0.2 mg/cm^2

SMILES: O=C1O[C@H]([C@@H](O)CO)C(O)=C1O [ascorbic acid, L-ascorbic acid]
- Retention Ratio ([2]; 10 mJ, 1000 TZ/cm2): 1.8
- Total Uptake Ratio ([2]; 10 mJ, 1000 TZ/cm2): 2.9
- Retention Ratio ([2]; 10 mJ, 2000 TZ/cm2): 2.0
- Total Uptake Ratio ([2]; 10 mJ, 2000 TZ/cm2): 4.2
- Retention Ratio ([2]; 20 mJ, 500 TZ/cm2): 1.3
- Total Uptake Ratio ([2]; 20 mJ, 500 TZ/cm2): 7.0
- Retention Ratio (retained by treated skin / retained by control skin) [2, 5]: 2.1
- Total Uptake Ratio (treated skin / control skin) [2, 5]: 5.3
- Retention Ratio (retained by treated skin / retained by control skin) [2, 6]: 3.8
- Total Uptake Ratio (treated skin / control skin) [2, 6]: 9.6
- Retention Ratio ([2]; 20 mJ, 1000 TZ/cm2): 3.8
- Total Uptake Ratio ([2]; 20 mJ, 1000 TZ/cm2): 9.6
- Cumulative permeation over time, non-contact mode compared with contact mode ([2]; 20 mJ, FIG. 12): higher permeation levels
- Cumulative permeation [2, 7]: 0.20 ± 0.03 mg
- Enhancement ratio (total uptake by treatment/total uptake in control) [2, 7]: 5.3
- Retention [2, 7]: 0.13 ± 0.01 mg
- Total uptake [2, 7]: 0.42 ± 0.06 mg/cm2
- Cumulative permeation [2, 8]: 0.37 ± 0.14 mg
- Enhancement ratio (total uptake by treatment/total uptake in control) [2, 8]: 9.6
- Retention [2, 8]: 0.24 ± 0.03 mg
- Total uptake [2, 8]: 0.77 ± 0.18 mg/cm2
- Cumulative permeation [2, 9]: below
- Retention [2, 9]: 0.06 ± 0.01 mg
- Total uptake [2, 9]: 0.08 ± 0.01 mg/cm2
- Share of the total uptake contributed by permeation [2, 10]: ~70%
- Share of the total uptake contributed by retention [2, 10]: Approximately 30%
- Improvement of uptake in non-contact mode over contact mode at identical laser parameters ([3]; 10 mJ @ 2000 MTZ/cm2): ~4 ×
- Improvement of uptake in non-contact mode over contact mode at identical laser parameters ([3]; 20 mJ @ 1000 MTZ/cm2): ~3 ×
- Cumulative permeation [3, 11]: 0.49 ± 0.07 mg
- Enhancement ratio (total uptake in treated sample/total uptake in control) [3, 11]: 6.6
- Retention [3, 11]: 0.22 ± 0.02 mg
- Total uptake [3, 11]: 0.90±0.07 mg/cm2
- Cumulative permeation [3, 12]: 0.27 ± 0.10 mg
- Enhancement ratio (total uptake in treated sample/total uptake in control) [3, 12]: 3.6
- Retention [3, 12]: 0.12 ± 0.02 mg
- Total uptake [3, 12]: 0.49±0.14 mg/cm2
- Cumulative permeation [3, 13]: 0.90 ± 0.27 mg
- Enhancement ratio (total uptake in treated sample/total uptake in control) [3, 13]: 10.3
- Retention [3, 13]: 0.19 ± 0.02 mg
- Total uptake [3, 13]: 1.40±0.31 mg/cm2
- Cumulative permeation ([3]; 1550 nm, 85 μm, non-contact mode, pulse energy 20 mJ, text b227 prints 10 mJ @ 2000 MTZ/cm2): 2.41 ± 0.44 mg
- Retention ([3]; 1550 nm, 85 μm, non-contact mode, pulse energy 20 mJ, text b228 prints 10 mJ @ 2000 MTZ/cm2): 0.40 ± 0.09 mg
- Enhancement ratio (total uptake in treated sample/total uptake in control) [3, 14]: 26.3
- Total uptake [3, 14]: 3.58±0.54 mg/cm2
- Permeation into the diffusion chamber ([3]; all conditions of laser treatment tested): observed to permeate into the diffusion chamber
- Normalized cumulative permeation at 10 mJ @ 2000 MTZ/cm2 relative to 20 mJ @ 1000 MTZ/cm2 ([3]; contact mode): approximately 2 ×
- Total uptake at 2000 MTZ/cm2 relative to 1000 MTZ/cm2 within the respective treatment mode ([3]; contact or non-contact, regardless of pulse energy (10 mJ or 20 mJ)): approximately two or more times
- Retention [3, 9]: 0.11 ± 0.01 mg
- Total uptake [3, 9]: 0.14±0.01 mg/cm2
- Normalized cumulative permeation at 10 mJ @ 2000 MTZ/cm2 relative to 20 mJ @ 1000 MTZ/cm2 ([3]; non-contact mode): more than twice
- Permeation measured by HPLC ([3]; non-irradiated ex vivo skin, up to 90 min after application): no permeation
- Time until permeation was demonstrated ([3]; skin treated at pulse energies of 10 mJ and 20 mJ, contact mode, FIG. 13): ≤ 5 min
